Measured values: patent US9289444B2, “Composition for promoting hematogenesis containing quercetin 3-O-β-(2″-galloyl)-rhamnopyranoside as active ingredient” (Chungbuk National University Industry Academic Cooperation …, priority 2011, dated 2016)

How the values were obtained:
[1] = tested on: bone marrow failure mouse induced by busulphan (BU); assay: Semisolid colonogenic assay for BFU-E in BU bone marrow failure model; format: in vivo, Balb/c mice; settings: from 10 days to 63 days after QGR administration, vs positive control group
Description: (§1) Bone marrow failure model induced by administering busulphan (BU) was designed according to the procedures previously described by Molyneux et al (Cell Biol Toxicol 27, 13-40, 2011) and the scheme is shown in FIG. 8. BU (Sigma chemicals, Poole, Dorset, UK) was dissolved in acetone to a final concentration of 18.8 mg/ml, diluted five-fold with distilled water, and was intraperitoneally administered three times for 5 days with the dose of 0.2 ml BU solution per mouse. Equal amount of five-fold diluted acetone solution without BU was administered to vehicle control group. QGR was dissolved in dimethylsulfoxide and diluted with distilled water to a final concentration of 1.25%. Mice were orally administered every two days with QGR (0.25 mg/mouse) for 63 days. Seven or eight mice were sacrificed on days of 1, 5, 10, 16, 25, 40, 49, and 63 after BU administration and were investigated to confirm the effect of QGR to recover bone marrow failure.
In order to investigate whether QGR has an activity to promote the differentiation from hematopoietic stem cells to BFU-E namely an erythroid progenitor in the damaged bone marrow induced by BU administration, the semisolid colonogenic assay was carried out. […] 14 days later, the number of BFU-E colony was counted.

[2] = tested on: bone marrow failure mouse induced by busulphan (BU); assay: Peripheral blood analysis in bone marrow failure model induced by busulphan (BU); format: in vivo, Balb/c mice
Text: 5-week-old female Balb/c mice were purchased from Orient Bio Inc. (Seongnam-si, Gyeonggi-do, Korea). All protocols of animal experiments were approved by Institutional Animal Care and Use Committee of Laboratory Animal Research Center, Chungbuk National University. The mice were fed by Teklad Global 18% protein rodent diet (Harlan, Iowa, USA) and had free access to drinking water. The mice were housed and bred under specific pathogen-free conditions, and were went through environmental acclimatization for one week before used in the animal experiments and were separated into three groups (n=70/group).
as §1
In order to evaluate the activity of QGR to recover anemia animal model induced by BU administration, peripheral blood was collected during an autopsy and were investigated. The collected peripheral blood was stored in the bottle containing EDTA to prevent a blood clotting, and the numbers of erythrocytes, leukocytes, and platelets, hematocrit (HCT) level, mean corpuscular volume (MCV), and mean corpuscular hemoglobin (MCH) were measured.

LPS-induced Balb/c mice = settings: cited from earlier work
BMNCs [3] = assay: Semisolid colonogenic assay (BFU-E colonies); format: cell-based, mouse
Description: To investigate the effects of QGR on erythroid lineage development in mouse HSCs and EPCs, the colonogenic assay was performed according to the manufacturer's instruction in triplicate by plating 2×10^5 cells/plate using methylcellulose stock solution in IMDM (R&D Systems) with cocktail (rIL-3 100 units/ml plus rSCF 5 units/ml plus rEpo 3 units/ml) or/and QGR (0, 100 or 200 μM/ml) in 35 mm-diameter cell culture plates. These plates were put in 100 mm-diameter plates with 3 ml of autoclaved distilled water and incubated at 37° C. in 5% CO2 humidity air. 14 days later, BFU-E colonies were counted under an Axiovert 40 CFL inverted microscope (Carl Zeiss, Oberkochen, Germany).

[4] = tested on: unopsonized zymosan-stimulated human monocytes; settings: cited from earlier work
BMNCs [5] = assay: Flow cytometric analysis for cells positive for TER-119; format: cell-based, mouse; settings: 7 days, 100 or 200 μM/ml, dose-dependently, vs negative control
Description: To confirm the differentiation of mouse HSCs or EPCs into erythroid cells by QGR treatment, flow cytometric analysis for mouse anti-TER-119 was performed. BMNCs were cultured with either rEpo (3 units/ml) or QGR (100 or 200 μM/ml) in 6-well plates. Cells were harvested at day 7, washed with PBS, re-suspended at concentration of 1×10^5 cells/ml in 100 μl of PBS containing 0.02% sodium azide and 2% FBS, incubated with 10 μl of mouse anti-CD16/CD32 Ab (eBioScience, San Diego, Calif., USA) as Fc receptor blocker for 3 min at room temperature and incubated with PE-conjugated anti-TER-119 Ab for 20 min at 4° C. Flow cytometric analysis was performed using FACS Calibur (Becton Dickinson, Oxnard, Calif., USA) and the percentage of positively stained cells was determined.

[6] = tested on: bone marrow failure mouse induced by busulphan (BU); assay: Colony-forming unit-fibroblast (CFU-F) measurement from MSPCs in BU bone marrow failure model; format: in vivo, Balb/c mice; settings: decreased from day 10 in positive control group; p<0.05
Description: as §1, with “Seven or eight mice were sacrificed on days of 1, 5, 10, 16, 25, 40, 49, and 63 after BU administration and were investigated to confirm the effect of QGR to recover bone marrow failure.” left out
CFU-F, a progenitor cell colony differentiated from MSPCs is in the stage prior to being finally matured into mesenchymal cells such as osteoblast, vascular endothelial cells acting as hematopoietic stem cell niche. In order to investigate the effect of QGR on the formation and differentiation of mesenchymal stem cells, MSPCs were isolated and the number of CFU-F colonies of the respective groups was measured and compared to each other. […] All visible colonies were counted.

[7] = QGR 0.25 mg/mouse orally after BU

## CC1OC(Oc2c(-c3ccc(O)c(O)c3)oc3cc(O)cc(O)c3c2=O)C(OC(=O)c2cc(O)c(O)c(O)c2)C(O)C1O (stereo not drawn) [QGR, quercetin 3-O-β-(2″-galloyl)-rhamnopyranoside]
[1]
  number of BFU-E: increased significantly and consistently
[2]; BU group vs BU+QGR group
  mean corpuscular volume (MCV): BU administration group are significantly lower than those of BU+QGR administration group
[2]; [7]
  leukocyte numbers vs normal control group: slightly lower
  recovery effect of leukocyte level, onset: ≥ 10 days
  recovery effect on erythrocyte level, onset: ≥ 5 days
  recovery of reduced platelet numbers, onset: ≥ 16 days
[2]; QGR 0.25 mg/mouse orally every two days after BU
  erythrocyte level vs normal control group: slightly lower
[2]; QGR 0.25 mg/mouse orally every two days, days 5, 10, 16, 25, 49, 63
  erythrocyte level vs positive control group (BU + vehicle): significantly higher
[2]; day 10 up to day 63
  leukocyte numbers vs positive control group (BU + vehicle): higher level
[2]; pattern similar to erythrocytes
  hemoglobin (HGB) level: recovered the anemia
[2]; vs positive control group (BU + vehicle), significant differences continuously
  platelet numbers: steeply recovered
LPS-induced Balb/c mice
  nitric oxide production: inhibiting
BMNCs [3]; cocktail (rIL-3, rSCF and rEpo) plus 200 μM QGR, p<0.01
  formation and growth of BFU-E colonies compared with the positive control: 1.43 fold
BMNCs [3]; day 14, 100 or 200 μM/ml for QGR, dose-dependent
  number of BFU-E colonies compared with negative control: significantly enhanced
BMNCs [3]; day 14, QGR alone vs rIL-3+rSCF+rEpo
  number of BFU-E colony compared with positive control: smaller than that of positive control
[4]
  superoxide production: inhibiting
BMNCs [5]
  ratio of TER-119+ cells (flow cytometric analysis): significantly increased
[6]
  number of CFU-F: recovered significantly
